Read-outs that look alike come from different tables or passages of the source.
Legend:
[1] = Brain pharmacokinetics and brain to plasma ratio after IV co-administration of DMT and DMT-d10 to male rats (Group 4); assay type: in vivo, Sprague Dawley rats; details: for Cmax / Tmax / half-life / Kp: Sprague Dawley, rat; for Cmax / Tmax / AUC0-inf / AUC(0-t) / half-life: brain; for Cmax / Tmax / AUC0-inf / AUC(0-t): Group 4 IV bolus 1 mg/kg, male rats; for Distribution into brain: after IV co-administration; for half-life / Kp: male, 1 mg/kg; for half-life: Group 4 IV, calculated 0.25 to 1 hr; for Kp: brain / plasma, intravenous, read-out: B/P (AUC0-1), brain to plasma ratio
Procedure: The pharmacokinetics and bioavailability of N,N-dimethyltryptamine (DMT) and 2-(1H-indol-3-yl)-N,N-bis(methyl-d3)ethan-1-amine-1,1,2,2-d4 (DMT-d10) were investigated in rats following intravenous (bolus), oral gavage (OG), and inhalation after co-dose administration.
Sampling collection. PK samples (0.3 mL) were collected from the jugular vein by venepuncture into tubes containing K2EDTA anticoagulant at the following sampling times: Group 1 (IV) and Group 2 (oral) serial plasma collection at 0.083, 0.25, 0.5, 1, 3, 8 and 24 hr postdose; Group 4 (IV) composite plasma and brain collection at 0.083, 0.25, 0.5 and […]; Group 6 (inhalation) serial plasma collection at 0.333, 0.533, 0.833, 1.333, 3.333, 8.333 and 24.333 after start of inhalation.
Brain samples: After extraction of whole brain from the cranium, brains were rinsed, patted dry, weighed, placed into tubes and frozen on dry ice. Thereafter, they were stored at −70 (10°) C pending analysis.
Bioanalysis. Plasma and brain homogenates were analyzed for DMT and DMT-d10 using an established LC-MS/MS assay.) Pharmacokinetic parameters were determined from the DMT and DMT-d10 plasma and brain concentration-time profiles using commercially available software (Phoenix® WinNonlin®).

[2] = Plasma pharmacokinetics of co-administered DMT and DMT-d10 by intravenous (bolus), oral gavage and inhalation administration to male rats; details: for time of peak plasma concentration postdose: after oral administration; for mean residence time (MRT) after inhalation compared to IV administration: inhalation vs IV; for F: calculated from dose normalized AUC0-1 mean values vs Group 4 IV; for bioavailability / Tmax / half-life / AUC(0-t) / AUC0-inf / Cmax / MRT last / AUC0-1/dose / t1/2: plasma
[3] = Experiment 6: blood neurotrophic and endocrine biomarkers after DMT+N2O in healthy human participants; details: DMT 0.1, 0.2, 0.4 mg/kg
Excerpt: General experimental design. The proposed studies aim to define proof-of-concept synergistic interactions of inhalational DMT fumarate with N2O, or IV DMT fumarate administered as a bolus over 30 seconds. Healthy adult participants will be exposed to either inhalational DMT in 20-25% N2O in oxygen as the carrier gas, or inhalational DMT in oxygen alone as the carrier gas in a blinded manner, or IV DMT while inhaling 20-25% N2O in oxygen, or oxygen.
Pre-study: Baseline measurements of heart rate, body temperature and blood pressure will be made. An IV cannula will be inserted into a forearm vein for blood sampling and to allow administration of DMT as a bolus in the IV condition. Participants will be allowed to relax for 30 min before the drug session. Study session: Participants will receive administration of either 20-25% N2O in oxygen, or oxygen alone, for 10 minutes prior to the administration of a high, medium or low dose of inhalational or IV DMT (0.4, 0.2, 0.1 mg/kg) over the course of 30 sec-1 minute. […]
Baseline blood samples will be drawn 30 minutes before N2O or oxygen administration, and after 8 mins of N2O or oxygen administration for endocrine markers of HPA axis activation: corticotropin, β-endorphin, prolactin, GH and cortisol levels. Further blood samples will be drawn, and vital signs measured 2, 15, 60 and 120 minutes after DMT administration. […]

[4] = cited from earlier work
[5] = rats, following intraperitoneal injection; cited from earlier work
[6] = molecular target: T1, serotonin 5-HT2A receptor (Mus musculus, UniProt P35363); details: 1 mg/kg dose, intraperitoneal, rats and mice; cited from earlier work
T1 construct: endogenous in cells; host or cells: living mice (in vivo behavioural assay); receptor endogenous to the animal

[7] = inhalation, DMT 15.3 mg/kg, DMT-d10 14.7 mg/kg
[8] = male, Sprague Dawley, rat, inhaled
[9] = male, Sprague Dawley, rat, inhaled or intranasal
[10] = male, Sprague Dawley, rat, inhaled or intranasal, AUC0-1, plasma, Group 6 inhalation, DMT 15.3 mg/kg, DMT-d10 14.7 mg/kg
[11] = male, Sprague Dawley, rat, inhaled or intranasal, AUC0-1, plasma, inhalation, DMT 15.3 mg/kg, DMT-d10 14.7 mg/kg (summary table)
[12] = male, Sprague Dawley, rat, inhaled or intranasal, AUC0-t, Group 6 inhalation, DMT 15.3 mg/kg, DMT-d10 14.7 mg/kg
[13] = male, Sprague Dawley, rat, iv, 1 mg/kg
[14] = male, Sprague Dawley, rat, iv, 1 mg/kg, AUC0-1, plasma, 1 mg/kg (summary table)
[15] = male, Sprague Dawley, rat, iv, 1 mg/kg, AUC0-1, plasma, Group 4 IV bolus, 1 mg/kg, male rats
[16] = male, Sprague Dawley, rat, iv, 1 mg/kg, AUC0-t, Group 4 IV bolus, 1 mg/kg, male rats
[17] = male, Sprague Dawley, rat, po, 10 mg/kg
[18] = male, Sprague Dawley, rat, po, 10 mg/kg, AUC0-1, plasma, 10 mg/kg (summary table)
[19] = male, Sprague Dawley, rat, po, 10 mg/kg, AUC0-1, plasma, Group 2 oral gavage (OG), 10 mg/kg, male rats
[20] = male, Sprague Dawley, rat, po, 10 mg/kg, AUC0-t, Group 2 oral gavage (OG), 10 mg/kg, male rats
[21] = inhalation, calculated 0.333 to 3.333 hr (summary table)
[22] = intravenous 1 mg/kg, calculated 0.083 to 1.0 hr (summary table)
[23] = human, IV bolus of DMT (as fumarate salt), 0.05-0.4 mg/kg

T1 sequence (P35363 whole entry): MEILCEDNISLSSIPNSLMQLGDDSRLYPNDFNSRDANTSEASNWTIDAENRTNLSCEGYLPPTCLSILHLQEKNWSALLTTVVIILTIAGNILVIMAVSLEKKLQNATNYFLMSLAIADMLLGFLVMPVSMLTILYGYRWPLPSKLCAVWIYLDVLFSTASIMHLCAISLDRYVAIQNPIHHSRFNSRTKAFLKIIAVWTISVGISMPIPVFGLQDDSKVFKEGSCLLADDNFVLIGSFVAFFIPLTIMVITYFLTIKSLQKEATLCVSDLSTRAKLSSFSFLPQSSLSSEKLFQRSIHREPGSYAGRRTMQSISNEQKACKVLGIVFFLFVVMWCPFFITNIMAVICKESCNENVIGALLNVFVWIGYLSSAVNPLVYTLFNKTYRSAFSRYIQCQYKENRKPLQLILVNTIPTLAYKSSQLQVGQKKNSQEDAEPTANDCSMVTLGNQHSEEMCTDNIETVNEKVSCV

With `[2H]C([2H])([2H])N(C([2H])([2H])[2H])C([2H])([2H])C([2H])([2H])c1c[nH]c2ccccc12` [DMT-d10, 2-(1H-indol-3-yl)-N,N-bis(methyl-d3)ethan-1-amine-1,1,2,2-d4] as the compound, how does the “improvement of brain to plasma (B/P) ratio by deuteration” value ([1]; DMT-d10 vs. DMT, IV) read?
The value was “approximately 50%”.

And the Cmax [1]?
The Cmax was 1490 ng/g.

And the Tmax [1]?
The Tmax was 5 min.

And the Distribution into brain [1]?
The Distribution into brain was “high”.

What about the AUC0-inf [1] of the same compound?
Its AUC0-inf is 1290 ng·h/g.

And the AUC(0-t) [1]?
The AUC(0-t) was 931 ng·h/g.

And the half-life [1]?
The half-life was 33.9 min.

And the Kp [1]?
Its Kp is 14.

And the “increase of inhalation bioavailability by deuteration” value ([2]; DMT-d10 vs. DMT)?
The value was “approximately 60%”.

What about the “time of highest plasma concentration (first time point taken)” value (“time of highest plasma concentration” below) ([2]; after IV bolus) of the same compound?
Its value is 0.083 h.

What about the “time of highest plasma concentration” value ([2]; after inhalation) of the same compound?
Its value is 0.333 h.

And the “time of peak plasma concentration postdose” value [2]?
Its value is 1 h.

And the “mean residence time (MRT) after inhalation compared to IV administration” value [2]?
Its value is “approximately 2 ×”.

What about the F [2, 7] of the same compound?
The F was 24.3%.

What about the bioavailability [2, 8] of the same compound?
The bioavailability was 24.3%.

What about the Tmax [2, 9] of the same compound?
Its Tmax is 20 min.

And the half-life [2, 9]?
The half-life was 23.7 min.

And the AUC(0-t) [2, 10]?
The AUC(0-t) was 267 ng·h/mL.

And the AUC(0-t) [2, 11]?
The AUC(0-t) was 267 ng·h/mL.

What about the AUC(0-t) [2, 12] of the same compound?
The AUC(0-t) was 361 ng·h/mL.

And the AUC0-inf [2, 13]?
Its AUC0-inf is 92.6 ng·h/mL.

And the Cmax [2, 13]?
Its Cmax is 148 ng/mL.

And the MRT last [2, 13]?
The MRT last was 0.348 h.

What about the half-life [2, 13] of the same compound?
Its half-life is 26.5 min.

What about the AUC(0-t) [2, 14] of the same compound?
The AUC(0-t) was 74.6 ng·h/mL.

What about the AUC(0-t) [2, 15] of the same compound?
The AUC(0-t) was 74.6 ng·h/mL.

What about the AUC(0-t) [2, 16] of the same compound?
Its AUC(0-t) is 74.6 ng·h/mL.

What about the Cmax [2, 17] of the same compound?
Its Cmax is 20.8 ng/mL.

What about the MRT last [2, 17] of the same compound?
The MRT last was 3.69 h.

And the Tmax [2, 17]?
The Tmax was 60 min.

And the bioavailability [2, 17]?
Its bioavailability is 1.2%.

And the AUC(0-t) [2, 18]?
The AUC(0-t) was 8.78 ng·h/mL.

And the AUC(0-t) [2, 19]?
The AUC(0-t) was 8.78 ng·h/mL.

What about the AUC(0-t) [2, 20] of the same compound?
Its AUC(0-t) is 77.2 ng·h/mL.

And the F ([2]; oral gavage 10 mg/kg)?
Its F is 1.2%.

What about the Cmax ([2]; Group 4 IV bolus, 1 mg/kg, male rats) of the same compound?
Its Cmax is 148 ng/mL.

And the AUC0-1/dose [2, 7]?
Its AUC0-1/dose is 18.2.

And the t1/2 [2, 21]?
The t1/2 was 23.7 min.

And the t1/2 [2, 22]?
Its t1/2 is 26.5 min.

What about the AUC0-1/dose ([2]; intravenous, 1 mg/kg) of the same compound?
The AUC0-1/dose was 74.6.

What about the AUC0-1/dose ([2]; oral, 10 mg/kg) of the same compound?
Its AUC0-1/dose is 0.878.

For `CN(C)CCc1c[nH]c2ccccc12` [DMT, N,N-dimethyltryptamine], which Cmax [1] is on record?
Its Cmax is 3430 ng/g.

And the Tmax [1]?
Its Tmax is 5 min.

And the Distribution into brain [1]?
Its Distribution into brain is “high”.

And the AUC0-inf [1]?
Its AUC0-inf is 1070 ng·h/g.

What about the AUC(0-t) [1] of the same compound?
Its AUC(0-t) is 1060 ng·h/g.

What about the half-life [1] of the same compound?
Its half-life is 9.3 min.

And the Kp [1]?
Its Kp is 9.

And the “levels of VEGF and BDNF in blood” value [3]?
Its value is “dose-dependently increased levels”.

What about the “time of highest plasma concentration” value ([2]; after IV bolus) of the same compound?
The value was 0.083 h.

What about the “time of highest plasma concentration” value ([2]; after inhalation) of the same compound?
The value was 0.333 h.

What about the “time of peak plasma concentration postdose” value [2] of the same compound?
The value was 1 h.

What about the “mean residence time (MRT) after inhalation compared to IV administration” value [2] of the same compound?
The value was “approximately 2 ×”.

And the F [2, 7]?
Its F is 15.3%.

And the bioavailability [2, 8]?
Its bioavailability is 15.3%.

What about the Tmax [2, 9] of the same compound?
Its Tmax is 20 min.

And the half-life [2, 9]?
Its half-life is 19.7 min.

What about the AUC(0-t) [2, 10] of the same compound?
The AUC(0-t) was 265 ng·h/mL.

And the AUC(0-t) [2, 11]?
Its AUC(0-t) is 265 ng·h/mL.

What about the AUC(0-t) [2, 12] of the same compound?
Its AUC(0-t) is 300 ng·h/mL.

And the AUC0-inf [2, 13]?
The AUC0-inf was 115 ng·h/mL.

And the Cmax [2, 13]?
The Cmax was 314 ng/mL.

What about the MRT last [2, 13] of the same compound?
The MRT last was 0.227 h.

What about the half-life [2, 13] of the same compound?
Its half-life is 10.1 min.

What about the AUC(0-t) [2, 14] of the same compound?
The AUC(0-t) was 113 ng·h/mL.

What about the AUC(0-t) [2, 15] of the same compound?
The AUC(0-t) was 113 ng·h/mL.

And the AUC(0-t) [2, 16]?
The AUC(0-t) was 113 ng·h/mL.

And the Cmax [2, 17]?
Its Cmax is 28 ng/mL.

What about the MRT last [2, 17] of the same compound?
The MRT last was 2.87 h.

What about the Tmax [2, 17] of the same compound?
Its Tmax is 60 min.

And the bioavailability [2, 17]?
The bioavailability was 1.2%.

And the AUC(0-t) [2, 18]?
Its AUC(0-t) is 13.7 ng·h/mL.

And the AUC(0-t) [2, 19]?
The AUC(0-t) was 13.7 ng·h/mL.

And the AUC(0-t) [2, 20]?
The AUC(0-t) was 65 ng·h/mL.

And the F ([2]; oral gavage 10 mg/kg)?
The F was 1.2%.

What about the AUC0-1/dose [2, 7] of the same compound?
The AUC0-1/dose was 17.3.

What about the t1/2 [2, 21] of the same compound?
The t1/2 was 19.7 min.

What about the t1/2 [2, 22] of the same compound?
Its t1/2 is 10.1 min.

And the AUC0-1/dose ([2]; intravenous, 1 mg/kg)?
The AUC0-1/dose was 113.

And the AUC0-1/dose ([2]; oral, 10 mg/kg)?
The AUC0-1/dose was 1.37.

And the half-life ([4]; administered intravenously)?
The half-life was “around 15 minutes”.

And the “time to peak plasma concentrations” value ([4]; administered intravenously)?
Its value is “approximately 2 minutes”.

What about the subjective effects ([4]; human, 0.1 mg/kg IV) of the same compound?
Its subjective effects is “not hallucinogenic”.

What about the subjective effects ([4]; human, 0.2 and 0.4 mg/kg IV) of the same compound?
Its subjective effects is “nearly instantaneous onset of visual hallucinatory phenomena, bodily dissociation, and extreme shifts in mood”.

What about the “peak of psycho-biological effects after administration” value [4, 23] of the same compound?
Its value is 120 seconds.

What about the “time by which psycho-biological effects resolve” value [4, 23] of the same compound?
The value was at most 30 minutes.

And the duration of effect ([4]; vaporized DMT)?
The duration of effect was “less than 30 min”.

And the half-life [5]?
The half-life was 5 to 15 min.

And the “time to be metabolized and cleared from brain, liver, and plasma” value [5]?
The value was at most 1 h.

What about the “hallucinogenic effect as measured by head-twitch responses (HTRs)” value [6] of the same compound?
Its value is “sub-hallucinogenic”.
